This note sets out measurements from ChEMBL document CHEMBL3044959, “Feeding deterrents from Aconitum episcopale roots against the red flour beetle, Tribolium castaneum” (J Agric Food Chem, 2011).

As a reminder, the LD50 is the dose expected to kill half of the subjects tested. Read a high LD50 as lower toxicity.

The subject of series [1] is Tribolium castaneum. The series is described as follows: Feeding deterrent activity against Tribolium castaneum (red flour beetle) adults using wheat flour assessed as consumption of diet at 30 ppm measured after 3 days relative to untreated control. Type of series: functional.
In series [2] the test system is Tribolium castaneum. Briefly: Feeding deterrent activity against Tribolium castaneum (red flour beetle) adults using wheat flour assessed as consumption of diet at 100 ppm measured after 3 days relative to untreated control. Type of series: functional.
The subject of series [3] is Tribolium castaneum. Briefly: Feeding deterrent activity against Tribolium castaneum (red flour beetle) adults using wheat flour assessed as consumption of diet at 1000 ppm measured after 3 days relative to untreated control. Type of series: functional.
Series [4] relates to Tribolium castaneum. The series is described as follows: Feeding deterrent activity against Tribolium castaneum (red flour beetle) adults using wheat flour assessed as consumption of diet at 10 ppm measured after 3 days relative to untreated control. Type of series: functional.
Series [5] concerns Tribolium castaneum. Briefly: Feeding deterrent activity against Tribolium castaneum (red flour beetle) adults using wheat flour assessed as consumption of diet at 300 ppm measured after 3 days relative to untreated control. Type of series: functional.
In series [6] the test system is Tribolium castaneum. The series is described as follows: Feeding deterrent activity against Tribolium castaneum (red flour beetle) adults using wheat flour assessed as inhibition of insect feeding measured after 3 days. Type of series: functional, organism-based.
The nature of series [7]: Toxicity in po dosed Mus musculus (mouse). Type of series: organism-based. As to conditions: in vivo.
Series [8] in a line: Toxicity in iv dosed Mus musculus (mouse). Type of series: organism-based. As to conditions: in vivo.
A short description of series [9]: Toxicity in ip dosed Mus musculus (mouse). Type of series: organism-based. As to conditions: in vivo.

For `CCN1C[C@]2(COC)CC[C@H](OC)[C@]34C1[C@H]([C@H](OC)[C@H]23)[C@@]1(O)C[C@H](OC)[C@H]2C[C@@H]4[C@@H]1[C@H]2O` [CHASMANINE], the Activity is given as 72.47% in [1]; 61.64% in series [2]; 53.29% in series [3]; 90.55% in [4]; 69.59% in series [5].
As to `CCN1C[C@]2(COC)[C@H](O)C[C@H](OC)[C@]34C1[C@H]([C@H](OC)[C@H]23)[C@@]1(OC(C)=O)C[C@H](OC)[C@@]2(O)C[C@@H]4[C@@H]1[C@H]2OC(=O)c1ccc(OC)cc1` [YUNACONITINE], in [6], the EC50 is 654.3 ppm. Moreover, the Activity turned out to be 85.48% in [1], 68.37% in series [2] and 96.75% in series [4]. For the same molecule, the LD50 in series [7] is 2.97 mg/kg.
Take `CCN1C[C@]2(C)CC[C@H](OC)[C@]34C1[C@H](C[C@H]23)[C@@]1(O)C[C@H](OC)[C@H]2C[C@@H]4[C@@H]1[C@H]2O` [SACHACONITINE]: the EC50 in [6] is 427.8 ppm. Besides, the Activity in series [1] worked out at 71.78%; in series [2] it was 62.19%; in series [3] it was 38.08%; in series [4] it was 93.97%; in series [5] it was 53.7%.
As to `CC(=O)O[C@@H]1C[C@H](O)[C@@]23CO[C@@H](O)[C@]1(C)[C@@H]2C[C@@H](O)[C@]1(C)[C@@H]3C(=O)[C@H](OC(C)=O)[C@@]2(C)[C@H](c3ccoc3)C[C@H]3O[C@]321` [TOOSENDANIN], in [6], the EC50 is 94.3 ppm.
Consider `CCN1C[C@]2(COC)CC[C@H](OC)[C@]34C1[C@H](C[C@H]23)[C@@]1(O)C[C@H](OC)[C@H]2C[C@@H]4[C@@H]1[C@H]2O` [TALATISAMINE], for which, in series [6], the EC50 worked out at 342.8 ppm. In addition, the Activity is recorded as 75.89% in [1]; 60.82% in series [2]; 48.77% in series [3]; 92.47% in [4]; 58.63% in [5].
Consider `CCN1C[C@]2(C)CC[C@H](O)[C@@]34C5C[C@@H]6[C@@H](OC)C[C@@](O)(C5[C@H]6O)[C@@H](CC23)C14` (some centres not stated) [KARACOLINE], for which the EC50 in [6] was 395.2 ppm. Further, the Activity worked out at 77.95% in series [1]; 65.07% in series [2]; 43.84% in series [3]; 92.96% in series [4]; 54.66% in series [5]. The LD50 was 51.5 mg/kg in series [8] and 298 mg/kg in series [9].
On to `CCN1C[C@]2(COC)CC[C@H](OC)[C@]34C1[C@H]([C@H](OC)[C@H]23)[C@@]1(OC(C)=O)C[C@H](OC)[C@@]2(O)C[C@@H]4[C@@H]1[C@H]2OC(=O)c1ccc(OC)cc1` [CRASSICAULINE A], for which the EC50 in series [6] is given as 1134.5 ppm. In addition, the Activity was 89.73% in series [1]; 78.36% in series [2]; 39.59% in series [3]; 97.81% in [4]; 53.83% in [5].
